Reference: US8529927B2, “Alpha-2 agonist polymeric drug delivery systems” (Allergan, Inc., priority 2004, dated 2013)
Read-outs that look alike come from different tables or passages of the source.

Experiments:
[1] = tested on: Branch retinal vein occlusion (BRVO); test: intravitreal implants in monkeys with laser-induced branch retinal vein occlusion (BRVO); type: in vivo, Cynomolgus monkeys
Experimental: Baseline measures were performed 3 days prior to implantation and 10 days following implantation with intraocular pressure (IOP), mfERG, laser Doppler scanning topography/flowmetry (HRT/HRF), optical coherence tomography (OCT), indocyanine green angiography (ICG) and fluorescein angiography (FA).
Wide angle contact lens fundus photography verified implant count and localization.
Branch retinal vein occlusion (BRVO) was achieved by injecting 1 ml of 20 mg/kg Rose Bengal intravenously followed by thermal irradiation using Omni Coherent Diode laser at 532 nm, 600 mW, 50 um spot size, 0.01 sec pulse mode with a 1.6× inversion contact lens. Laser pulses were delivered until the vein segment was closed. […] Occlusion was verified post-laser by fundus photography.
Delay in fluorescein filling of the occluded vein was quantified using Metamorph 6.0 software. Intensity measurements were made with pre-defined regions of interest for early and late phases of fluorescein angiography to quantify delay in filling and the observed delay in fluorescein clearance.
Intraocular pressure (IOP) was recorded (OD and OS) in each group in triplicate post implantation and prior to all follow-up electrophysiology and retinal imaging procedures.
Multi-focal ERG was performed using a VERIS 5.0 system.

[2] = in vivo
Experimental: A separate group of rabbits were studied to obtain pharmacokinetic data. In these rabbits the implants were inserted using a surgical intravitreal implantation procedure performed as follows: a conjunctival incision was made, and a sclerotomy was performed with a 20-gauge MVR blade. The sclerotomy was 3 mm from the limbus and lateral to the dorsal rectus muscle between the 10 and 12 o'clock positions on the right eye, and between the 12 and 2 o'clock positions on the left eye. Using a sterile forceps, the test article was inserted through the sclerotomy. The sclerotomy was closed with 9-0 Prolene suture material. A sterile ocular lubricant was applied to the eye following the implantation procedure. Blood was collected from rabbits prior to euthanasia/necropsy on Days 8, 31, 58, 91, 136, or 184. The aqueous humor, vitreous humor, lens, retina and plasma samples from the rabbits were analyzed by using liquid chromatography-mass spectrometry/mass spectrometry (LC-MS/MS) methods.

[3] = cited from earlier work
[4] = albino, rabbit, lens, other: intravitreal implantation, 200 μg
[5] = albino, rabbit, plasma, other: intravitreal implantation, 200 μg
[6] = albino, rabbit, retina, other: intravitreal implantation, 200 μg
[7] = albino, rabbit, vitreous humor, other: intravitreal implantation, 200 μg

With `Brc1c(NC2=NCCN2)ccc2nccnc12` [brimonidine, 5-bromo-6-(2-imidazolidinylideneamino) quinoxaline] the “blood flow in the fovea (Laser Doppler Flowmetry)” value ([1]; following BRVO, FIG. 14) was “unchanged”, the “amount of laser burns needed to close the veins” value ([1]; n=2) was 157±79 and the “Iris-ciliary body brimonidine concentration, estimated mean value in parentheses” value ([2]; Day 8, Formulation #17 implant, estimate including ALQ samples) was 3010 ng/g. The “Iris-ciliary body brimonidine concentration” value ([2]; Day 8 after intravitreal 200 μg brimonidine implant (Formulation #17), N = 2, two samples ALQ) was 942 ng/g, the “period of detectable release from the implant into the vitreous” value ([2]; Formulation #17 implant) was “at least a ninety day period” and the “route of clearance after release from the intravitreal implant” value ([2]; Formulation #17 implant) was “posterior clearance as opposed to an anterior clearance”. The “time brimonidine was present in the retina” value ([2]; Formulation #17 implant) was “at least 84 days”, the concentration at 91 day ([2]; albino, rabbit, iris-ciliary body, other: intravitreal implantation, 200 μg) was 42.9 ± 18.7 ng/g and the concentration at 58 day [2, 4] was 17.9 ± 12.5 ng/g. For the same compound, the concentration at 136 day [2, 4] was 16.2 ± 12.3 ng/g, the concentration at 184 day [2, 4] was 1.18 ± 0.71 ng/g and the concentration at 8 day [2, 5] was 0.092 ng/mL. It also gave a concentration at 31 day [2, 5] of 0.0575 ng/mL, a concentration at 58 day [2, 5] of 0.255 ng/mL and a concentration at 58 day [2, 6] of 122 ± 57.3 ng/g. The concentration at 91 day [2, 6] was 488 ± 471 ng/g, the concentration at 184 day [2, 6] was 59.8 ± 35 ng/g and the concentration at 31 day [2, 7] was 9.35 ± 6.25 ng/mL. The concentration at 58 day [2, 7] was 5.6 ± 3.24 ng/mL, the “detectability in the aqueous humor” value ([2]; any time point (Days 8-184), Formulation #17 implant) was “not detectable at any time point” and the “solubility in water” value ([3]; listed as brimonidine free base) was “not water soluble”. For the same compound, the “solubility in water” value ([3]; listed as brimonidine freebase) was “negligible”.
